Patent publication US10640497B2, “Microbiocidal oxadiazole derivatives” (SYNGENTA PARTICIPATIONS AG, priority 2015, dated 2020)

Key:
[1] = tested on: Glomerella lagenarium (Colletotrichum lagenarium); assay: Fungicidal activity against Glomerella lagenarium (Colletotrichum lagenarium), liquid culture, cucumber, preventative (anthracnose); type: cell-based; settings: Colletotrichum orbiculare, liquid culture (PDB), growth inhibition measured photometrically 3-4 days after application, compared to untreated control
Protocol: Mycelia fragments or conidia suspensions of a fungus, prepared either freshly from liquid cultures of the fungus or from cryogenic storage, are directly mixed into nutrient broth. DMSO solutions of the test compound (max. 10 mg/ml) is diluted with 0.025% Tween20 by a factor of 50 and 10 μl of this solution is pipetted into a microtiter plate (96-well format). The nutrient broth containing the fungal spores/mycelia fragments is then added to give an end concentration of the tested compound. The test plates are incubated in the dark at 24° C. and 96% relative humidity. The inhibition of fungal growth is determined photometrically after 2 to 7 days, depending on the pathosystem, and percent antifungal activity relative to the untreated check is calculated. Conidia of the fungus from cryogenic storage are directly mixed into nutrient broth (PDB potato dextrose broth). After placing a (DMSO) solution of test compound into a microtiter plate (96-well format), the nutrient broth containing the fungal spores is added. The test plates are incubated at 24° C. and the inhibition of growth is measured photometrically 3-4 days after application.

[2] = tested on: Phakopsora pachyrhizi; assay: Fungicidal activity against Phakopsora pachyrhizi, soybean, leaf disc preventative (Asian soybean rust); type: in vivo; settings: foliar, 288 h, 12-14 days after application, compared to untreated control
Protocol: Leaf disks or leaf segments of various plant species are cut from plants grown in a greenhouse. The cut leaf disks or segments are placed in multiwell plates (24-well format) onto water agar. The leaf disks are sprayed with a test solution before (preventative) or after (curative) inoculation. Compounds to be tested are prepared as DMSO solutions (max. 10 mg/ml) which are diluted to the appropriate concentration with 0.025% Tween20 just before spraying. The inoculated leaf disks or segments are incubated under defined conditions (temperature, relative humidity, light, etc.) according to the respective test system. A single evaluation of disease level is carried out 3 to 14 days after inoculation, depending on the pathosystem. Percent disease control relative to the untreated check leaf disks or segments is then calculated. Soybean leaf disks are placed on water agar in multiwell plates (24-well format) and sprayed with the formulated test compound diluted in water. One day after application leaf discs are inoculated by spraying a spore suspension on the lower leaf surface. After an incubation period in a climate cabinet of 24-36 hours in darkness at 20° C. and 75% rh leaf disc are kept at 20° C. with 12 h light/day and 75% rh. The activity of a compound is assessed as percent disease control compared to untreated when an appropriate level of disease damage appears in untreated check leaf disks (12-14 days after application).

[3] = tested on: Puccinia recondita f. sp. tritici; assay: Fungicidal activity against Puccinia recondita f. sp. tritici, wheat, leaf disc curative (brown rust); type: in vivo; settings: foliar, 144 h, wheat leaf segments, curative (applied 1 day after inoculation), 6-8 days after application, compared to untreated control
Protocol: (§1) Leaf disks or leaf segments of various plant species are cut from plants grown in a greenhouse. The cut leaf disks or segments are placed in multiwell plates (24-well format) onto water agar. The leaf disks are sprayed with a test solution before (preventative) or after (curative) inoculation. Compounds to be tested are prepared as DMSO solutions (max. 10 mg/ml) which are diluted to the appropriate concentration with 0.025% Tween20 just before spraying. The inoculated leaf disks or segments are incubated under defined conditions (temperature, relative humidity, light, etc.) according to the respective test system. A single evaluation of disease level is carried out 3 to 14 days after inoculation, depending on the pathosystem. Percent disease control relative to the untreated check leaf disks or segments is then calculated. Wheat leaf segments cv. Kanzler are placed on agar in multiwell plates (24-well format). The leaf segments are inoculated with a spore suspension of the fungus. Plates are stored in darkness at 19° C. and 75% rh. The formulated test compound diluted in water is applied 1 day after inoculation. The leaf segments are incubated at 19° C. and 75% rh under a light regime of 12 h light/12 h darkness in a climate cabinet and the activity of a compound is assessed as percent disease control compared to untreated when an appropriate level of disease damage appears in untreated check leaf segments (6-8 days after application).

[4] = tested on: Puccinia recondita f. sp. tritici; assay: Fungicidal activity against Puccinia recondita f. sp. tritici, wheat, leaf disc preventative (brown rust); type: in vivo; settings: foliar, wheat leaf segments, preventative (inoculated 1 day after application), 7-9 days after application, compared to untreated control
Protocol: as §1, with “plates (24-well format) and sprayed with the formulated test compound diluted in water. The leaf” for “plates (24-well format). The leaf”, “of the fungus 1 day” for “of the fungus. Plates are stored in darkness at 19° C. and 75% rh. The formulated test compound diluted in water is applied 1 day”, “day after application. The inoculated” for “day after inoculation. The leaf”, “application. The inoculated leaf segments” for “inoculation. The leaf segments”, “leaf segments (7-9 days after” for “leaf segments (6-8 days after”

CN1C(=O)CN(Cc2ccc(-c3noc(C(F)(F)F)n3)cc2)C1=O [Compound A-47, 3-methyl-1-[[4-[5-(trifluoromethyl)-1,2,4-oxadiazol-3-yl]phenyl]methyl]imidazolidine-2,4-dione]
≥ 80%: inhibition of growth at 20 ppm [1] | pest or weed control at 200 ppm [2] | pest or weed control at 200 ppm [3] | pest or weed control at 200 ppm [4]

CC1(C)CON(Cc2ccc(-c3noc(C(F)(F)F)n3)cc2)C1=O [Compound A-4, 4,4-dimethyl-2-[[4-[5-(trifluoromethyl)-1,2,4-oxadiazol-3-yl]phenyl]methyl]isoxazolidin-3-one]
≥ 80%: inhibition of growth at 20 ppm [1] | pest or weed control at 200 ppm [2] | pest or weed control at 200 ppm [3] | pest or weed control at 200 ppm [4]

COC1CCCN(Cc2ccc(-c3noc(C(F)(F)F)n3)cc2)C1=O (centres unmarked) [Compound A-19, 3-methoxy-1-[[4-[5-(trifluoromethyl)-1,2,4-oxadiazol-3-yl]phenyl]methyl]piperidin-2-one]
≥ 80%: inhibition of growth at 20 ppm [1] | pest or weed control at 200 ppm [2] | pest or weed control at 200 ppm [3] | pest or weed control at 200 ppm [4]

CC1CC(=O)N(Cc2ccc(-c3noc(C(F)(F)F)n3)cc2)C1 (centres unmarked) [Compound A-8, 4-methyl-1-[[4-[5-(trifluoromethyl)-1,2,4-oxadiazol-3-yl]phenyl]methyl]pyrrolidin-2-one]
≥ 80%: inhibition of growth at 20 ppm [1] | pest or weed control at 200 ppm [2] | pest or weed control at 200 ppm [3] | pest or weed control at 200 ppm [4]

O=S1(=O)CCCN1c1ccc(-c2noc(C(F)(F)F)n2)cc1 [Compound D-1, 2-[4-[5-(trifluoromethyl)-1,2,4-oxadiazol-3-yl]phenyl]-1,2-thiazolidine 1,1-dioxide]
≥ 80%: inhibition of growth at 20 ppm [1] | pest or weed control at 200 ppm [2] | pest or weed control at 200 ppm [3] | pest or weed control at 200 ppm [4]

O=C1C2CCC(CC2)N1Cc1ccc(-c2noc(C(F)(F)F)n2)cc1 [Compound A-15, 3-[[4-[5-(trifluoromethyl)-1,2,4-oxadiazol-3-yl]phenyl]methyl]-3-azabicyclo[2.2.2]octan-2-one]
≥ 80%: inhibition of growth at 20 ppm [1] | pest or weed control at 200 ppm [2] | pest or weed control at 200 ppm [3] | pest or weed control at 200 ppm [4]

O=C1CCC(C(F)F)N1Cc1ccc(-c2noc(C(F)(F)F)n2)cc1 (centres unmarked) [Compound A-21, 5-(difluoromethyl)-1-[[4-[5-(trifluoromethyl)-1,2,4-oxadiazol-3-yl]phenyl]methyl]pyrrolidin-2-one]
≥ 80%: inhibition of growth at 20 ppm [1] | pest or weed control at 200 ppm [2] | pest or weed control at 200 ppm [3] | pest or weed control at 200 ppm [4]

CN(C)S(=O)(=O)N1CCN(Cc2ccc(-c3noc(C(F)(F)F)n3)cc2)C(=O)C1 [Compound A-42, N,N-dimethyl-3-oxo-4-[[4-[5-(trifluoromethyl)-1,2,4-oxadiazol-3-yl]phenyl]methyl]piperazine-1-sulfonamide]
≥ 80%: inhibition of growth at 20 ppm [1] | pest or weed control at 200 ppm [2] | pest or weed control at 200 ppm [3] | pest or weed control at 200 ppm [4]

O=C1CCCCN1Cc1ccc(-c2noc(C(F)(F)F)n2)cn1 [Compound A-12, 1-[[5-[5-(trifluoromethyl)-1,2,4-oxadiazol-3-yl]-2-pyridyl]methyl]piperidin-2-one]
≥ 80%: inhibition of growth at 20 ppm [1] | pest or weed control at 200 ppm [2] | pest or weed control at 200 ppm [3] | pest or weed control at 200 ppm [4]

O=C1C2CCC(C2)N1Cc1ccc(-c2noc(C(F)(F)F)n2)cc1 (centres unmarked) [Compound A-24, 3-[[4-[5-(trifluoromethyl)-1,2,4-oxadiazol-3-yl]phenyl]methyl]-3-azabicyclo[2.2.1]heptan-2-one]
≥ 80%: inhibition of growth at 20 ppm [1] | pest or weed control at 200 ppm [2] | pest or weed control at 200 ppm [3] | pest or weed control at 200 ppm [4]

O=C1CCCON1Cc1ccc(-c2noc(C(F)(F)F)n2)cc1 [Compound A-37, 2-[[4-[5-(trifluoromethyl)-1,2,4-oxadiazol-3-yl]phenyl]methyl]oxazinan-3-one]
≥ 80%: inhibition of growth at 20 ppm [1] | pest or weed control at 200 ppm [2] | pest or weed control at 200 ppm [3] | pest or weed control at 200 ppm [4]

CC1CCCC(=O)N1Cc1ccc(-c2noc(C(F)(F)F)n2)cc1 (centres unmarked) [Compound A-14, 6-methyl-1-[[4-[5-(trifluoromethyl)-1,2,4-oxadiazol-3-yl]phenyl]methyl]piperidin-2-one]
≥ 80%: inhibition of growth at 20 ppm [1] | pest or weed control at 200 ppm [2] | pest or weed control at 200 ppm [3] | pest or weed control at 200 ppm [4]

CC1(C)CC(=O)N(Cc2ccc(-c3noc(C(F)(F)F)n3)cc2)C(=O)C1 [Compound A-11, 4,4-dimethyl-1-[[4-[5-(trifluoromethyl)-1,2,4-oxadiazol-3-yl]phenyl]methyl]piperidine-2,6-dione]
≥ 80%: inhibition of growth at 20 ppm [1] | pest or weed control at 200 ppm [2] | pest or weed control at 200 ppm [3] | pest or weed control at 200 ppm [4]

CN1CC(=O)N(Cc2ccc(-c3noc(C(F)(F)F)n3)cc2)C1=O [Compound A-50, 1-methyl-3-[[4-[5-(trifluoromethyl)-1,2,4-oxadiazol-3-yl]phenyl]methyl]imidazolidine-2,4-dione]
≥ 80%: inhibition of growth at 20 ppm [1] | pest or weed control at 200 ppm [2] | pest or weed control at 200 ppm [3] | pest or weed control at 200 ppm [4]

CNS(=O)(=O)N1CCN(Cc2ccc(-c3noc(C(F)(F)F)n3)cc2)C(=O)C1 [Compound A-43, N-methyl-3-oxo-4-[[4-[5-(trifluoromethyl)-1,2,4-oxadiazol-3-yl]phenyl]methyl]piperazine-1-sulfonamide]
≥ 80%: inhibition of growth at 20 ppm [1] | pest or weed control at 200 ppm [2] | pest or weed control at 200 ppm [3] | pest or weed control at 200 ppm [4]

CC1(C)CC(=O)N(Cc2ccc(-c3noc(C(F)(F)F)n3)cc2)O1 [Compound A-6, 5,5-dimethyl-2-[[4-[5-(trifluoromethyl)-1,2,4-oxadiazol-3-yl]phenyl]methyl]isoxazolidin-3-one]
≥ 80%: inhibition of growth at 20 ppm [1] | pest or weed control at 200 ppm [2] | pest or weed control at 200 ppm [3] | pest or weed control at 200 ppm [4]

CC(=O)N1CCN(Cc2ccc(-c3noc(C(F)(F)F)n3)cc2)C(=O)C1 [Compound A-35, 4-acetyl-1-[[4-[5-(trifluoromethyl)-1,2,4-oxadiazol-3-yl]phenyl]methyl]piperazin-2-one]
≥ 80%: inhibition of growth at 20 ppm [1] | pest or weed control at 200 ppm [2] | pest or weed control at 200 ppm [3] | pest or weed control at 200 ppm [4]
